Assay results: US20250194594A1, “ATTRACTANT COTTON SEED BUG, OXYCARENUS Hyalinipennis, AND USES THEREOF” (The United States of America, as represented by the …, priority 2023, published 2025)
Entries after “also recorded” stand apart in the source; their conditions may differ.

What was measured:
[1] = tested on: cotton seed bugs (CSBs); assay: Pheromone function assigned from the behavioral responses and VOC profiles; format: in vivo, Oxycarenus hyalinipennis; details: summary statement; compounds not tested singly in the bioassays
[2] = tested on: cotton seed bug (CSB), Oxycarenus hyalinipennis; assay: Field test, pheromones in plastic vials in a cotton field with high CSB population; format: in vivo; details: counted after 1 hour, compared among treatment groups including control (no treatment)
Source text: (§1) The mean number of O. hyalinippenis in different treatment traps (captures/week) in field trials were compared by one-way analysis of variance (ANOVA) followed by Ryan-Einot-Gabriel-Welsch F test (SPSS 10.0 for Windows) following D George and P Mallery (2002, “SPSS for Windows Step by Step: A Simple Guide and Reference,” 11.0 Update. 4th Edition, Allyn & Bacon; Boston, Massachusetts, USA). All statistical comparisons were considered for significance at α=0.05.
(§2) Different pheromones or mixtures of pheromones were tested for their ability to attract CSB in the field.
Field tests were conducted by adding one or more of the identified pheromones to plastic vials and placing the vials in a cotton field with high CSB population, followed by counting the CSB caught after one (1) hour.
A field test was conducted using E2-octenal, E2-octenyl acetate, and a mixture of E2-octenal and E2-octenyl acetate. The compounds were placed in plastic vials in a cotton field with a high population of CSB. Many other bugs were also captured in the traps (numbers were not included).

[3] = cited from earlier work
[4] = cited from earlier work; remark: listed apart in the source
[5] = tested on: cotton seed bug (CSB), Oxycarenus hyalinipennis; assay: Field test, attractants formulated in rubber septa in a cotton field with low CSB population; format: in vivo; details: cotton field where CSB population was low, vs control (no treatment), listed as 4-oxo-E2-8: ald
Source text: as §1, §2
In a separate field test, a mixture of E2-octenal, 4-oxo-E2-octenal, and E2-octenyl acetate in a ratio of 1:2:7, as well as the single attractant component, 4-oxo-E2-8: ald, were tested. The compounds were formulated in rubber septa in a cotton field where the population of CSB was low. CSB formed the majority of insects caught in the traps. Trap specificity was much higher than in the test described above.

## CC1=CCC2CC1C2(C)C (stereo not drawn) [α-Pinene, 2,6,6-Trimethylbicyclo[3.1.1]hept-2-ene]
[1]
  pheromone function: performed as CSB attraction pheromones

## CCCCCCC/C=C/C=O (single isomer, unassigned) [(E)-2-Decenal]
[1]
  pheromone function: performed as oviposition pheromones

## CCC/C=C/C=O [(E)-2-Hexenal]
[1]
  pheromone function: performed as CSB attraction pheromones

## CCC(=O)/C=C/C=O [4-Oxo-(E)-2-hexenal]
[1]
  pheromone function: performed as CSB attraction pheromones

## CCCCC/C=C/C=O [(E)-2-Octenal]
[2]
  number of CSB caught in the traps: not significantly different
[1]
  pheromone function: performed as CSB attraction pheromones; also recorded: performed as oviposition pheromones
[3]
  solubility (in water): practically insoluble
[4]
  basicity (based on its pKa): extremely weak basic (essentially neutral)

## CCC/C=C/COC(C)=O [(E)-2-Hexenyl acetate, (E)-2-hexen-1-yl acetate]
[1]
  pheromone function: performed as CSB attraction pheromones

## CCCCC/C=C/COC(C)=O [(E)-2-Octenyl acetate]
[2]
  number of CSB caught in the traps: not significantly different
[1]
  pheromone function: performed as CSB attraction pheromones; also recorded: performed as oviposition pheromones

## CCCCC(=O)/C=C/C=O [4-Oxo-(E)-2-octenal]
[5]
  CSB trapped compared with control: trapped significantly more CSB than control; also recorded: attract CSB

## CC(C)=CCC[C@]1(C)[C@H]2CC=C(C)[C@@H]1C2 [(E)-α-Bergamotene]
[1]
  pheromone function: performed as alarm (repellent) pheromones

## C=C/C(C)=C/C/C=C(/C)CCC=C(C)C [(Z, E)-α-Farnesene]
[1]
  pheromone function: performed as alarm (repellent) pheromones
